Structures are written as SMILES.

The source of these data is US5104869A, “Renin inhibitors” (American Cyanamid Company, priority 1990, dated 1992).

This experiment addresses T1, human kidney renin (Homo sapiens, UniProt P00797).
T1 construct: Human renin was prepared from human kidney; from tissue; host or cells: human kidney
T1 sequence (P00797 67-406): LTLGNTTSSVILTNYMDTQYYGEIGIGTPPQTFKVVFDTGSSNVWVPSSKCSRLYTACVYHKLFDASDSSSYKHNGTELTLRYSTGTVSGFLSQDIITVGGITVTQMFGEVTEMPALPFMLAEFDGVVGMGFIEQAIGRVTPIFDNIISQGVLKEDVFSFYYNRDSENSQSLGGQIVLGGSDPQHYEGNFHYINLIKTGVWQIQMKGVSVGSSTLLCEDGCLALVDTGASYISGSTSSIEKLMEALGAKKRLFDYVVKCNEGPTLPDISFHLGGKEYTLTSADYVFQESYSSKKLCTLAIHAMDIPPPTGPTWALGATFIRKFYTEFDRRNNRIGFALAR
The experiment can be described thus: Radioimmunoassay Screen for Renin Inhibitors (in vitro angiotensin I generation, quantitated by radioimmunoassay). As to conditions: purified human plasma angiotensinogen, pH 6.0, one hour at 37° C., read-out: Renin Inhibiton IC50. The class given is biochemical. On the procedure: The in vitro method for the screening of anti-renin compounds involves, first, angiotensin I generation, and second, the quantitation of the angiotensin I produced by radioimmunoassay.
The incubation medium consisted of 20 μl of purified human plasma angiotensinogen (1); 10 μl of human kidney renin (2); 5 μl of phenylmethylsulfonyl fluoride; 10 μl of disodium EDTA (10 mM); 10 μl of antirenin compound (5×10^-3, 5×10^-4, 5×10^-5) in dimethylformamide, or ethanol and a suitable amount of maleate buffer (77 mM, pH 6.0) to make a final volume of 500 μl. The reaction mixture was incubated for one hour at 37° C. and the enzymatic reaction was stopped by placing the tube in ice-cold water. The angiotensin I generated during the incubation was measured by a radioimmunoassay plasma renin activity kit (Clinical Assays, Inc.).
The incubation medium consisted of either 100 μl aliquots of the above reaction mixture or a standard amount of angiotensin I; 1000 μl of phosphate buffer (100 mM, pH 7.6) and 100 μl of (^125 I)angiotensinin a gamma-coat, tube. After three hours of incubation at room temperature, the tubes were decanted, and the radioactivity of each tube was determined in a gamma counter. Duplicate determinations were performed for each incubation. The results were expressed in ng of angiotensin I generated per ml of generation medium per hour of incubation (ng/AI/ml/hr).
(1) The human plasma angiotensinogen derived from the blood of a person receiving oral contraceptive pills was purified by chromatography on a pepstatinaminohexyl-agarose column.
(2) Human renin was prepared from human kidney.
As for `CC(C)C[C@H](NC(=O)[C@@H](CC(=O)NCc1ccccn1)Cc1cccc2ccccc12)C(=O)N[C@@H](CC(C)C)[C@@H](O)c1nccs1`, the half-inhibitory concentration (IC50) worked out at 120 nM.

For the compound `CC(C)C[C@H](NC(=O)[C@@H](CC(=O)NCCCCn1ccnc1)Cc1cccc2ccccc12)C(=O)N[C@@H](CC(C)C)[C@@H](O)c1nccs1`, the IC50 is 93 nM.

In the case of `CC(C)C[C@H](NC(=O)[C@@H](CC(=O)NCCN1CCCC1)Cc1cccc2ccccc12)C(=O)N[C@@H](CC(C)C)[C@@H](O)c1nccs1`, the IC50 came to 740 nM.

Consider `CC(C)C[C@H](NC(=O)[C@@H](CC(=O)NC(C)(C)C)Cc1ccccc1)C(=O)N[C@@H](CC(C)C)[C@@H](O)c1nccs1`, for which the half-inhibitory concentration (IC50) worked out at 67000 nM.

For `CC(C)C[C@H](NC(=O)[C@@H](CC(=O)N1CCOCC1)Cc1cccc2ccccc12)C(=O)N[C@@H](CC1CCCCC1)[C@@H](O)c1ccco1`, the 50% inhibitory concentration (IC50) was 8.8 nM.

Consider `O=C(N[C@@H](Cc1cnc[nH]1)C(=O)N[C@@H](CC1CCCCC1)[C@@H](O)c1cccs1)[C@@H](CC(=O)N1CCOCC1)Cc1cccc2ccccc12`, for which the IC50 was found to be 270 nM.

Take `O=C(N[C@@H](Cc1c[nH]cn1)C(=O)N[C@@H](CC1CCCCC1)[C@@H](O)c1nccs1)[C@@H](CC(=O)N1CCOCC1)Cc1ccccc1`: the IC50 was determined as 15000 nM.

Regarding `CC(C)C[C@H](NC(=O)[C@H](Cc1ccccc1)OC(=O)N1CCC2(CC1)OCCO2)C(=O)N[C@@H](CC1CCCCC1)[C@@H](O)c1ccco1`, the IC50 came to 210 nM.

In the case of `COc1cc(C[C@H](CC(=O)N2CCOCC2)C(=O)N[C@@H](Cc2c[nH]cn2)C(=O)N[C@@H](CC(C)C)[C@@H](O)c2nccs2)cc(OC)c1OC`, the half-inhibitory concentration (IC50) was found to be 2800 nM.

Take `CC(C)C[C@H](NC(=O)[C@@H](CC(=O)NCCCN1CCOCC1)Cc1cccc2ccccc12)C(=O)N[C@@H](CC(C)C)[C@@H](O)c1nccs1`: the IC50 is 440 nM.

Turning to `CC(C)C[C@H](NC(=O)[C@H](Cc1ccccc1)OC(=O)N1CCC(=O)CC1)C(=O)N[C@@H](CC1CCCCC1)[C@@H](O)c1ccco1`, the IC50 is 58 nM.

With `O=C(N[C@@H](Cc1cnc[nH]1)C(=O)N[C@@H](CC1CCCCC1)[C@@H](O)c1ccccn1)[C@@H](CC(=O)N1CCOCC1)Cc1cccc2ccccc12`, the IC50 came out at 260 nM.

As to `O=C(N[C@@H](Cc1cnc[nH]1)C(=O)N[C@@H](CC1CCCCC1)[C@@H](O)c1ccco1)[C@@H](CC(=O)N1CCOCC1)Cc1cccc2ccccc12`, the 50% inhibitory concentration (IC50) came to 4.9 nM.

As to `CC(C)(C)OC(=O)C[C@@H](Cc1cccc2ccccc12)C(=O)N[C@@H](Cc1cnc[nH]1)C(=O)N[C@@H](CC1CCCCC1)[C@@H](O)c1nccs1`, the 50% inhibitory concentration (IC50) is 300 nM.

On to `CC(C)C[C@H](NC(=O)[C@@H](CC(=O)NCCCN1CCCC1=O)Cc1ccccc1)C(=O)N[C@@H](CC1CCCCC1)[C@@H](O)c1ccccn1`, for which the concentration for half-maximal inhibition (IC50) stood at 130 nM.

`O=C(N[C@@H](Cc1cnc[nH]1)C(=O)N[C@@H](CC1CCCCC1)[C@@H](O)c1nccs1)[C@@H](CC(=O)N1CCOCC1)Cc1cccc2ccccc12`: the IC50 is 35 nM.

For `CC(C)C[C@H](NC(=O)[C@@H](CC(=O)N1CCOCC1)Cc1ccccc1)C(=O)N[C@@H](CC1CCCCC1)[C@@H](O)c1nccs1`, the concentration for half-maximal inhibition (IC50) was 80000 nM.

Turning to `O=C(C[C@@H](Cc1cccc2ccccc12)C(=O)N[C@@H](Cc1cnc[nH]1)C(=O)N[C@@H](CC1CCCCC1)[C@@H](O)c1nccs1)NCCOc1ccccn1`, the IC50 was 580 nM.

`CC(C)C[C@H](NC(=O)[C@H](Cc1ccccc1)OC(=O)N1CCOCC1)C(=O)N[C@@H](CC1CCCCC1)[C@@H](O)c1cccs1`: the half-inhibitory concentration (IC50) was 270 nM.

Turning to `CC(C)C[C@H](NC(=O)[C@H](Cc1c[nH]cn1)NC(=O)[C@@H](CC(=O)NC(C)(C)C)Cc1ccccc1)[C@@H](O)c1nccs1`, the half-maximal inhibitory concentration (IC50) turned out to be 65000 nM.

For `CC(C)C[C@H](NC(=O)[C@@H](CC(=O)NCCOc1ccccn1)Cc1cccc2ccccc12)C(=O)N[C@@H](CC1CCCCC1)[C@@H](O)c1ccccn1`, the IC50 turned out to be 170 nM.

In the case of `CC(C)C[C@H](NC(=O)[C@@H](CC(=O)NCCN1CCOCC1)Cc1cccc2ccccc12)C(=O)N[C@@H](CC(C)C)[C@@H](O)c1nccs1`, the half-maximal inhibitory concentration (IC50) stood at 400 nM.

As for `CC(C)C[C@H](NC(=O)[C@@H](CC(=O)N1CCOCC1)Cc1ccccc1)C(=O)N[C@@H](CC(C)C)[C@@H](O)c1nccs1`, the concentration for half-maximal inhibition (IC50) worked out at 42000 nM.

In the case of `CC(C)C[C@H](NC(=O)[C@H](CC1CCCCC1)OC(=O)N1CCOCC1)C(=O)N[C@@H](CC1CCCCC1)[C@@H](O)c1ccco1`, the half-inhibitory concentration (IC50) turned out to be 180 nM.

In the case of `CC(C)C[C@H](NC(=O)[C@H](Cc1ccccc1)OC(=O)N1CCSCC1)C(=O)N[C@@H](CC1CCCCC1)[C@@H](O)c1ccccn1`, the half-inhibitory concentration (IC50) was found to be 840 nM.

As for `CC(C)(C)NC(=O)C[C@@H](Cc1cccc2ccccc12)C(=O)N[C@@H](Cc1cnc[nH]1)C(=O)N[C@@H](CC1CCCCC1)[C@@H](O)c1nccs1`, the concentration for half-maximal inhibition (IC50) is 7100 nM.

For the compound `CC(C)C[C@H](NC(=O)[C@@H](CC(=O)OC(C)(C)C)Cc1ccccc1)C(=O)N[C@@H](CC(C)C)[C@@H](O)c1nccs1`, the concentration for half-maximal inhibition (IC50) stood at 6500 nM.

For `CC(C)C[C@H](NC(=O)[C@@H](CC(=O)OC(C)(C)C)Cc1cccc2ccccc12)C(=O)N[C@@H](CC(C)C)[C@@H](O)c1nccs1`, the IC50 is 550 nM.

Turning to `CC(C)(C)OC(=O)C[C@@H](Cc1cccc2ccccc12)C(=O)N[C@@H](Cc1cnc[nH]1)C(=O)N[C@@H](CC1CCCCC1)[C@@H](O)c1ccccn1`, the IC50 came out at 4800 nM.

For `CC(C)C[C@H](NC(=O)[C@@H](CC(=O)N1CCOCC1)Cc1cccc2ccccc12)C(=O)N[C@@H](CC1CCCCC1)[C@@H](O)c1ccccn1`, the IC50 came out at 77 nM.

As to `CC(C)C[C@H](NC(=O)[C@@H](CC(=O)OC(C)(C)C)Cc1ccccc1)C(=O)N[C@@H](CC1CCCCC1)[C@@H](O)c1nccs1`, the concentration for half-maximal inhibition (IC50) came out at 160 nM.

Take `CC(C)C[C@H](NC(=O)[C@@H](CC(=O)NCCCn1ccnc1)Cc1cccc2ccccc12)C(=O)N[C@@H](CC(C)C)[C@@H](O)c1nccs1`: the IC50 stood at 210 nM.

As for `CC(C)C[C@H](NC(=O)[C@H](Cc1ccccc1)OC(=O)N1CCSCC1)C(=O)N[C@@H](CC1CCCCC1)[C@@H](O)c1cccs1`, the 50% inhibitory concentration (IC50) came to 500 nM.

For `CC(C)C[C@H](NC(=O)[C@@H](CC(=O)NCCc1ccccn1)Cc1cccc2ccccc12)C(=O)N[C@@H](CC(C)C)[C@@H](O)c1nccs1`, the concentration for half-maximal inhibition (IC50) amounted to 110 nM.

For the compound `CC(C)C[C@H](NC(=O)[C@@H](CC(=O)O)Cc1cccc2ccccc12)C(=O)N[C@@H](CC1CCCCC1)[C@@H](O)c1ccccn1`, the 50% inhibitory concentration (IC50) stood at 3800 nM.

For the compound `CC(=O)N1CCN(C(=O)O[C@@H](Cc2ccccc2)C(=O)N[C@@H](CC(C)C)C(=O)N[C@@H](CC2CCCCC2)[C@@H](O)c2ccco2)CC1`, the IC50 came to 42 nM.

`CC(C)C[C@H](NC(=O)[C@@H](CC(=O)NCCc1ccccc1)Cc1cccc2ccccc12)C(=O)N[C@@H](CC(C)C)[C@@H](O)c1nccs1`: the IC50 is 730 nM.

As for `CC(C)C[C@H](NC(=O)[C@@H](CC(=O)NCc1cccnc1)Cc1cccc2ccccc12)C(=O)N[C@@H](CC(C)C)[C@@H](O)c1nccs1`, the IC50 stood at 170 nM.

As for `COc1cc(C[C@H](CC(=O)O)C(=O)N[C@@H](CC(C)C)C(=O)N[C@@H](CC(C)C)[C@@H](O)c2nccs2)cc(OC)c1OC`, the 50% inhibitory concentration (IC50) is 6000 nM.

`CC(C)C[C@H](NC(=O)[C@@H](CC(=O)NCCN1CCCCC1)Cc1cccc2ccccc12)C(=O)N[C@@H](CC(C)C)[C@@H](O)c1nccs1`: the half-maximal inhibitory concentration (IC50) is 650 nM.

In the case of `CC(C)C[C@H](NC(=O)[C@@H](CC(=O)NCCOc1ccccn1)Cc1cccc2ccccc12)C(=O)N[C@@H](CC(C)C)[C@@H](O)c1nccs1`, the concentration for half-maximal inhibition (IC50) was 44 nM.

On to `CC(C)C[C@H](NC(=O)[C@H](Cc1ccccc1)OC(=O)N1CCNC(=O)C1)C(=O)N[C@@H](CC1CCCCC1)[C@@H](O)c1ccco1`, for which the IC50 amounted to 0.19 nM.

For `CC(C)C[C@H](NC(=O)[C@@H](CC(=O)OC(C)(C)C)Cc1cccc2ccccc12)C(=O)N[C@@H](CC1CCCCC1)[C@@H](O)c1ccccn1`, the 50% inhibitory concentration (IC50) was 160 nM.

Take `CC(C)C[C@H](NC(=O)[C@H](Cc1ccccc1)OC(=O)N1CCOCC1)C(=O)N[C@@H](CC1CCCCC1)[C@@H](O)c1nccs1`: the concentration for half-maximal inhibition (IC50) turned out to be 11 nM.

As for `CC(C)C[C@H](NC(=O)[C@H](Cc1ccccc1)OC(=O)N1CCOCC1)C(=O)N[C@@H](CC1CCCCC1)[C@@H](O)c1ccccn1`, the IC50 worked out at 770 nM.

Consider `CC(C)C[C@H](NC(=O)[C@@H](CC(=O)NCCc1cccn1C)Cc1cccc2ccccc12)C(=O)N[C@@H](CC(C)C)[C@@H](O)c1nccs1`, for which the IC50 came to 33 nM.

As for `COC(CNC(=O)C[C@@H](Cc1cccc2ccccc12)C(=O)N[C@@H](CC(C)C)C(=O)N[C@@H](CC(C)C)[C@@H](O)c1nccs1)OC`, the IC50 came to 410 nM.

Take `CC(C)C[C@H](NC(=O)[C@H](Cc1ccccc1)OC(=O)N1CCSCC1)C(=O)N[C@@H](CC1CCCCC1)[C@@H](O)c1ccco1`: the concentration for half-maximal inhibition (IC50) turned out to be 47 nM.

For orientation: IC50 means the concentration needed to halve the response being measured.
